Data on 3 molecules can be found in patent publication US20260347310A1, “PHENALKYLAMINES AND METHODS OF MAKING AND USING THE SAME” (GILGAMESH PHARMACEUTICALS, INC., priority 2022, published 2026).

Data set [1] is described as follows: Pharmacokinetics in plasma of rats after oral and intravenous dosing; oral bioavailability. The format is in vivo, Sprague Dawley rats. The settings on record: rat plasma, racemate, 10% captisol. The method, then:
The pharmacokinetics of disclosed compounds were determined in the plasma of rats after oral and intravenous dosing, with the results presented in Table 13.
Animals. Male Sprague Dawley rats were used in these studies. Animals were randomly assigned to treatment groups and were fasted overnight before oral dosing.
Drugs. The test compound was dissolved in 10% captisol (1) or 10% DMSO and 90% normal saline (2a) and administered intravenously (iv) at 2 mg/kg (1) or 1 mg/kg (2a) or orally (po) at 10 mg/kg (1) or 1 mg/kg (2a), calculated based on freebase, and at a volume of 10 mL/kg body weight for oral administration and 5 mL/kg for IV administration. The compounds were tested as the racemates.
Sample Collection and Bioanalysis. Blood samples were collected through the external jugular vein (via cannulation) at 0.083, 0.25, 0.5, 1, 2, 4, 8, and 24 h post-dose (total 8 time points/rat, 4 rats per administration route). At each time point, ~0.2 mL of blood was withdrawn and transferred into a pre-labeled 0.5-mL micro centrifuge tube containing 4 μL of 200 mM K2EDTA solution as anticoagulant and mixed gently by inverting the tube to facilitate mixing of anticoagulant with the blood. Blood samples were kept on ice until centrifugation. The collected blood samples were centrifuged at 4,000 rpm for 10 min at 4° C. Plasma samples were separated after centrifugation, transferred into pre-labeled tubes, and stored at −70° C. until bioanalysis. For bioanalysis, a 200-μL aliquot of internal standard prepared in acetonitrile (cetirizine, 50 ng/mL) was added (except for blank, where 200 μL of acetonitrile was added) to a 96-well Solvinert filter plate followed by 5 μL of a study plasma sample or spiked calibration standard. The filter plate was then centrifuged for 5 minutes at a speed of 2,500 rpm at 4° C. with a 96-well sample collection plate. Following centrifugation, collected samples were analyzed using a fit-for-purpose LC-MS/MS method, with authentic samples of the analyte used for calibration and identification.
Data Analysis. Pharmacokinetic parameters were estimated using the non-compartmental analysis tool of Phoenix® WinNonlin software (Ver 8.1). The drug concentrations of samples below the lower limit of quantitation (LLOQ) were designated as zero.

Data set [2] can be described thus: Metabolic stability in human liver microsomes (HLM). The format is in vitro ADME. To be noted: for stability in HLM (in words): 1 μM, 0.50 mg protein/mL, 1 mM NADPH, 37 °C, 60 min; for half-life at 1 µM / microsomal CLint at 1 µM: human liver microsomes 0.50 mg/mL, NADPH 1 mM, test compound 1 μM, 37° C., pH 7.4, 60 min. The method, then:
(§1) Test Compounds. Compounds were prepared as described above.
(§2) HLM Stability. Pooled HLM from adult male and female donors (Corning 452117) were used. Microsomal incubations were carried out in multi-well plates. Liver microsomal incubation medium consisted of PBS (100 mM, pH 7.4), MgCl2 (1 mM), and NADPH (1 mM), with 0.50 mg of liver microsomal protein per mL. Control incubations were performed by replacing the NADPH-cofactor system with PBS. Test compounds (1 μM, final solvent concentration 1.0%) were incubated with microsomes at 37° C. with constant shaking. Six time points over 60 minutes were analyzed, with 60 μL aliquots of the reaction mixture being drawn at each time point. The reaction aliquots were stopped by adding 180 μL of cold (4° C.) acetonitrile containing 200 ng/mL tolbutamide and 200 ng/mL labetalol as internal standards (IS), followed by shaking for 10 minutes, and then protein sedimentation by centrifugation at 4,000 rpm for 20 minutes at 4° C. Supernatant samples (80 μL) were diluted with water (240 μL) and analyzed for parent compound remaining using a fit-for-purpose liquid chromatography-tandem mass spectrometry (LC-MS/MS) method.
(§3) Data Analysis. The elimination constant (kel), half-life (t1/2), and intrinsic clearance (CLint) were determined in a plot of […] versus time, using linear regression analysis.

Data set [3] has as its target T1, 5-HT2A receptor (Homo sapiens, UniProt P28223). The experiment in a line: Radioligand binding at 5-HT2A ([3H]ketanserin). Also noted: expressed in transfected cells. The protocol: The binding affinities of disclosed compounds at the ketanserin binding site of the 5-HT2A receptor, the LSD binding site of the 5-HT2B receptor, and the mesulergine binding site of the 5-HT2C receptor were determined in radioligand binding experiments.
Method. The affinity of the test compounds for 5-HT2A, 5-HT2B, and 5-HT2C receptors was determined in radioligand binding experiments with [^3H]ketanserin, [^3H]LSD, and [^3H]mesulergine, respectively, by WuXi AppTec (Hong Kong) Limited, using methods adapted from the literature and under conditions described in Table 7.

A short description of data set [4]: Metabolic stability in dog liver microsomes (DLM). It is filed as in vitro ADME, Beagle dogs. The settings on record: for stability in DLM (in words): 1 μM, 0.50 mg protein/mL, 1 mM NADPH, 37 °C, 60 min; for half-life at 1 µM / microsomal CLint at 1 µM: dog liver microsomes 0.50 mg/mL, NADPH 1 mM, test compound 1 μM, 37° C., pH 7.4, 60 min. The method, then:
as §1
as §2, with “DLM” for “HLM”, “Beagle dogs (Xenotech D1000)” for “and female donors (Corning 452117)”
as §3

Data set [5] addresses T1, 5-HT2A receptor. Description: FLIPR Ca2+ flux functional agonist assay at 5-HT2A. The format is cell-based. Details: expressed in transfected cells; host or cells: HEK293. The method, then: Disclosed compounds were tested for agonist activity at several serotonin receptor subtypes (5-HT2A, […], and 5-HT2C) using Ca^2+ flux functional assays, with the results summarized in Table 9.
as §1
Functional Assays at 5-HT2A and 5-HT2B. Agonist activity at 5-HT2A and 5-HT2B receptors was determined using a FLIPR Ca^2+ flux assay at WuXi AppTec (Hong Kong) Limited according to their standard protocols. Briefly, stably transfected cells expressing the receptor of interest (HEK293 for both 5-HT2A and 5-HT2B) were grown and plated in a 384-well plate and incubated at 37° C. and 5% CO2 overnight. A solution of 250 mM probenecid in 1 mL FLIPR assay buffer was prepared fresh. This was combined with a fluorescent dye (Fluo-4 Direct™) to make a final assay concentration of 2.5 mM. Compounds were diluted 1:3.16 for 10 points and 750 nL was added to a 384 well compound plate using ECHO along with 30 μL assay buffer. The fluorescent dye was then added to the assay plate along with assay buffer to a final volume of 40 μL. The cell plate was incubated for 50 min at 37° C. and 5% CO2 and placed into the FLIPR Tetra along with the compound plate. 10 μL of references and compounds were then transferred from the compound plate into the cell plate and the fluorescent signal was read.

Read-outs that look alike come from different tables or passages of the source.

T1 sequence (P28223 whole entry): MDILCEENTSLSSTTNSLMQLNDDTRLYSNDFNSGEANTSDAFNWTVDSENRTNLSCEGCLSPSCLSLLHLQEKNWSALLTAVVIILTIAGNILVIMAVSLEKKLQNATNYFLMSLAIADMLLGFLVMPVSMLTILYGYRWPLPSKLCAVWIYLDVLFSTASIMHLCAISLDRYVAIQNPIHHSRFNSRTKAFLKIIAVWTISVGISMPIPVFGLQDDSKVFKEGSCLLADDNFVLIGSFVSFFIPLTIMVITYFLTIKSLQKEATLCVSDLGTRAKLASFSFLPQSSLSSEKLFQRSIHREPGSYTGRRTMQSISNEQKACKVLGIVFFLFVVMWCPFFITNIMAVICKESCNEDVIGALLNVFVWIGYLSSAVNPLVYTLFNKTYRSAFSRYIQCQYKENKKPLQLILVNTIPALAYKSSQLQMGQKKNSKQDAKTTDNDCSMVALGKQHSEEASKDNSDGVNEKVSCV

On to `CCCCCCc1cc(OC)c(CC(N)CC)cc1OC` (racemic) [Compound 1, 1-(4-hexyl-2,5-dimethoxyphenyl)butan-2-amine], for which the bioavailability in data set [1] (IV 2 mg/kg and PO 10 mg/kg, read-out: F (absolute oral bioavailability)) came to 8%. The molecule further had a C0 in data set [1] (IV 2 mg/kg) of 389 ng/mL. Besides, the AUC(0-t) was found to be 354 ng·h/mL in data set [1] (IV 2 mg/kg, read-out: AUC0-last (iv)) and 138 ng·h/mL in data set [1] (PO 10 mg/kg, fasted, read-out: AUC0-last (po)). The half-life in data set [1] (IV 2 mg/kg, read-out: t1/2 (iv) (converted)) is 2.16 h; in data set [1] (PO 10 mg/kg, fasted, read-out: t1/2 (po) (converted)), 2.63 h. In addition, the maximum concentration (Cmax) in data set [1] (PO 10 mg/kg, fasted) came to 35.1 ng/mL.

As to `CCC(N)Cc1cc(OC)c(CCCCC(C)(F)F)cc1OC` (stereo not drawn) [Compound 2b, 1-(4-(5,5-difluorohexyl)-2,5-dimethoxyphenyl)butan-2-amine], in data set [2], the “stability in HLM (in words)” value is “significantly higher stability compared to 1R and 1S”; the half-life at 1 µM is above 2.42 h; the microsomal CLint at 1 µM is below 9.6 µL/min/mg. On 5-HT2A receptor [3], this molecule had an inhibition constant (Ki) of 9.52 nM. In addition, the “binding at 5-HT2A receptors (in words)” value on 5-HT2A receptor [3] ([3H]ketanserin) is given as “potent ligands for 5-HT2A”. In data set [4], the “stability in DLM (in words)” value was “significantly higher stability compared to 1R and 1S”; the half-life at 1 µM turned out to be 1.19 h; the intrinsic clearance (microsomal CLint) at 1 µM came out at 19.4 µL/min/mg. The molecule further returned an EC50 at 5-HT2A receptor [5] of 5060 nM. The “agonist activity at 5-HT2A (in words)” value at 5-HT2A receptor [5] (Ca2+ flux, potency or efficacy) is “substantially less potent than 1R and 1S in the 5-HT2A FLIPR assay”. Besides, the Emax at 5-HT2A receptor [5] (HEK293, read-out: 5-HT2A % Act @ Max Dose) came out at 71.3%.

Take `[2H]C([2H])([2H])CCCCCc1cc(OC)c(CC(N)CC)cc1OC` (stereo not drawn) [Compound 3a, 1-(4-(hexyl-6,6,6-d3)-2,5-dimethoxyphenyl)butan-2-amine]: in data set [2], the “stability in HLM (in words)” value is on record as “intermediate stability”, the half-life at 1 µM is 0.517 h and the microsomal CLint at 1 µM turned out to be 44.7 µL/min/mg. Besides, in data set [4], the “stability in DLM (in words)” value is “modestly greater stability than 1R or 1S”, the half-life at 1 µM stood at 0.557 h and the microsomal CLint at 1 µM was 41.5 µL/min/mg.
